From PMC10304876 (Molecules, 2023)
Entries after “also recorded” stand apart in the source; their conditions may differ.

Tests used:
rodent = system: rodent; design: method as in PMID 17625813; details: rodent antinociceptive assays; cited from earlier work
[1] = biological target: T1, human µ-opioid receptor β-arrestin2 (Homo sapiens, UniProt P35372); experiment: cell-based; details: for Emax: read-out: MOR β-Arrestin Recruitment %Emax ± SEM
T1 construct: EFC (enzyme fragment complementation) fragment; host or cells: PathHunter CHO-K1
T1 sequence (P35372 whole entry, the tested form may be a part): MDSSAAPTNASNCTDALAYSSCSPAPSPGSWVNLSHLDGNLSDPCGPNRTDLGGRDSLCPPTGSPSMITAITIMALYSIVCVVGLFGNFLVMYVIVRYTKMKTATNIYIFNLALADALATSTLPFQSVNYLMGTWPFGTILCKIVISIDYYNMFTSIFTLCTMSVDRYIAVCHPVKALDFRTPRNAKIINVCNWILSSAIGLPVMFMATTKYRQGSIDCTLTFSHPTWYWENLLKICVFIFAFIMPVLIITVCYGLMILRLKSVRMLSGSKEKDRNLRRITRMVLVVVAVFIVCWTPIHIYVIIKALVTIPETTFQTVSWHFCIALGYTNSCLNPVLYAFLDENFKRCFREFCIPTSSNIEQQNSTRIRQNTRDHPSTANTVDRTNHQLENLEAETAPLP

[2] = biological target: T2, human δ-opioid receptor (OPRD1) (Homo sapiens, UniProt P41143); experiment: Forskolin-induced cAMP accumulation assay, DOR agonist; details: for Emax: read-out: DOR Agonist %Emax ± SEM, cAMP assay
T2 sequence (P41143 whole entry): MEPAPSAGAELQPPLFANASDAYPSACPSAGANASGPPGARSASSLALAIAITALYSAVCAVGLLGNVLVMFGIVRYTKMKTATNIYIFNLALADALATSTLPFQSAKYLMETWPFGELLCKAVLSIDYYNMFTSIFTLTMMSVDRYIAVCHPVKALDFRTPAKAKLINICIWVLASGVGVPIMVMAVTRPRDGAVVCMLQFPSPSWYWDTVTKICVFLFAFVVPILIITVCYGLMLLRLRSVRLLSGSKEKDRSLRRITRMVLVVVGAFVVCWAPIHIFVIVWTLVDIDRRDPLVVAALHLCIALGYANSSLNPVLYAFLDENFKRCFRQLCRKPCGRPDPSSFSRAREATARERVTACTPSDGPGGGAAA

[3] = system: squirrel monkeys (Saimiri sciureus); experiment: Squirrel monkey ventilation (whole-body plethysmograph, air vs 5% CO2); assay type: in vivo; details: for respiratory depressant effects (ventilatory ratio: minute volumes in 5% CO2 vs room air): cumulative dosing, result in words
Procedure: These experiments were approved under IACUC protocol #2015N000165.
Ventilation measures were assessed as described previously. Briefly, squirrel monkeys were acclimated to a customized acrylic chamber (10′′d × 10′′w × 10′′h) that served as a whole-body plethysmograph (EMKA Technologies, Montreal, PQ, Canada). Gas (either air or a 5% CO2 in air mixture) was introduced to and extracted from the chamber at a constant flow rate of 5 L/min. Experimental sessions consisted of 4–6 consecutive 30 min cycles, each comprising a 20 min exposure to air followed by a 10 min exposure to 5% CO2. Drug effects were determined using cumulative dosing procedures, and injections were administered following each exposure to 5% CO2. Respiratory rate and tidal volume (mL/breath) were recorded over 1 min periods and were multiplied to provide minute volumes. Data from the last three minutes of each exposure to air or CO2 were averaged and used for analysis of drug effects on ventilation.
(§1) All statistical analyses and graphic representations were completed with GraphPad Prism version 9.3.0 (GraphPad Software, San Diego, CA, USA) using log-transformed values of doses. Group means ± SEM tail withdrawal latencies (in sec) and minute volume ratios are plotted as a function of drug dose. Data were analyzed using one-way ANOVA with significance set at p < 0.05, followed by Dunnett’s multiple comparison test.

[4] = biological target: T2, human δ-opioid receptor (OPRD1); experiment: Forskolin-induced cAMP accumulation assay, DOR antagonist; details: for DOR Antagonist %Imax ± SEM: Imax normalized to naltrexone
[5] = system: squirrel monkeys (Saimiri sciureus); experiment: Warm-water tail withdrawal in squirrel monkeys; assay type: in vivo; details: 52 °C water, cumulative dosing, n = 3 to 5
Procedure: Male squirrel monkeys (Saimiri sciureus) were housed in a climate-controlled vivarium with a 12 h light/dark cycle (7 a.m.–7 p.m.) in the McLean Hospital Animal Care Facility (licensed by the U.S. Department of Agriculture and compliant with guidelines provided by the Committee on Care and Use of Laboratory Animals of the Institute of Laboratory Animals Resources, Commission on Life Sciences, National Research Council; 2011). These experiments were approved under IACUC protocol #2015N000165.
Tail withdrawal latencies were assessed as described previously. Briefly, monkeys were seated in customized Plexiglas chairs that allowed their tails to hang freely. Tail withdrawal latencies were measured by immersing the subject’s tail in water held at 35 °C or 52 °C (temperatures were presented in a randomized order during successive test components). After obtaining a baseline tail withdrawal latency, complete dose response curves were generated in each subject using standard cumulative dosing procedures. Briefly, every 15 min after an injection, tail withdrawal latencies at each temperature were redetermined and subjects were injected with the next dose, such that the total (cumulative) dose was increased by ½ log10 units in each successive cycle. This procedure was repeated until either (a) the tail withdrawal latency from 52 °C water reached the maximum allowable latency (10 s), or (b) tail withdrawal latency no longer increased with increases in dose of the test drug.
as §1

[6] = normalized to the forskolin control

SMILES | times more potent than morphine (rodent) [times] | Bias Factor [1] | EC50 [1] [nM] | Emax [1] [%] | EC50 [2] [nM] | Emax [2, 6] [%] | respiratory depressant effects (ventilatory ratio: minute volumes in 5% CO2 vs room air) [3] | IC50 [4] [nM] | DOR Antagonist %Imax ± SEM ([4]; cAMP assay) [%] | antinociceptive effects (tail withdrawal latency) [5] | ventilatory ratio reached with increasing dose ([3]; ratio of minute volumes in 5% CO2 and room air) | DOR Agonist %Emax ± SEM ([2]; cAMP assay, normalized to the forskolin control) [%] | DOR Agonist EC50 ± SEM (nM) ([2]; inhibition of forskolin-induced cAMP accumulation, CHO-K1 cells) | DOR Antagonist IC50 ± SEM (nM) ([4]; cAMP assay, versus EC50 of SNC80)
Oc1cccc([C@]23CCC[C@H]([C@H]2O)N(CCc2ccccc2)CC3)c1 [Compound 2] | ~500 |  |  |  |  |  |  |  |  |  |  |  |  | 
OC[C@H]1[C@H]2CCC[C@]1(c1cccc(O)c1)CCN2CCc1ccccc1 [Compound 11, 3-((1R,5S,9R)-9-(Hydroxymethyl)-2-phenethyl-2-azabicyclo[3.3.1]nonan-5-yl)phenol] |  | 13.4 | 187 | 2.7 | 8.5 ± 3.5 | 35 |  |  |  |  |  |  |  | 
OC[C@H]1[C@@H]2CCC[C@@]1(c1cccc(O)c1)CCN2CCc1ccccc1 [Compound 15, 3-((1S,5R,9R)-9-(Hydroxymethyl)-2-phenethyl-2-azabicyclo[3.3.1]nonan-5-yl)phenol] |  |  | > 50000 | 0 | 0.6 ± 0.3 | 17 | limited respiratory depressant effects | 336 ± 139 | 109 ± 8 | did not significantly increase tail withdrawal latency |  |  |  | 
OCC[C@H]1[C@@H]2CCC[C@@]1(c1cccc(O)c1)CCN2CCc1ccccc1 [Compound 21, 3-((1S,5R,9R)-9-(2-Hydroxyethyl)-2-phenethyl-2-azabicyclo[3.3.1]nonan-5-yl)phenol] |  |  | > 50000 | 0 | 13 ± 3 | 38 | reduced the ability of 5% CO2 to stimulate increases in ventilation |  |  | significantly increased tail withdrawal latency; also recorded: full antinociceptive effects in three of four subjects | above 2 | 39 ± 3 |  | 
OCCC[C@H]1[C@H]2CCC[C@]1(c1cccc(O)c1)CCN2CCc1ccccc1 [Compound 34, 3-((1R,5S,9R)-9-(3-Hydroxypropyl)-2-phenethyl-2-azabicyclo[3.3.1]nonan-5-yl)phenol] |  | 14.0 | 34 | 3.1 | > 10000 |  |  | 41 ± 5 | 111 ± 4 |  |  |  | no DOR agonist activity | weak DOR antagonist activity
OCCC[C@H]1[C@@H]2CCC[C@@]1(c1cccc(O)c1)CCN2CCc1ccccc1 [Compound 36] |  |  | > 50000 | 0 | 102 ± 16 | 41 | limited respiratory depressant effects |  |  | did not significantly increase tail withdrawal latency |  |  |  | 
COC[C@H]1[C@H]2CCC[C@]1(c1cccc(O)c1)CCN2CCc1ccccc1 [Compound 41, 3-((1R,5S,9R)-9-(Methoxymethyl)-2-phenethyl-2-azabicyclo[3.3.1]nonan-5-yl)phenol] |  | 6.4 | 29 | 2.8 | 2.4 ± 1.6 | 20 |  | 54 ± 14 | 80 ± 8 |  |  |  |  | 
CN1CC[C@]23c4c5ccc(O)c4O[C@H]2[C@@H](O)C=C[C@H]3[C@H]1C5 [Morphine, reference compound] |  |  |  |  |  |  |  |  |  | significantly increased tail withdrawal latency |  |  |  | 
